pIC50: −log10 of the molar value.
Each molecule was assayed against T1, wild-type FLT3 receptor (Homo sapiens, UniProt P36888) (assay: Cell-based FLT3 receptor ELISA (FLT ligand-induced phosphorylation in Baf3 FLT3 cells)). Conditions: 100 ng/mL Flt ligand, uncertainty ±20%.
T1 construct: host or cells: Baf3 (murine B cell lymphoma line), stably transfected
T1 sequence (P36888 27-993): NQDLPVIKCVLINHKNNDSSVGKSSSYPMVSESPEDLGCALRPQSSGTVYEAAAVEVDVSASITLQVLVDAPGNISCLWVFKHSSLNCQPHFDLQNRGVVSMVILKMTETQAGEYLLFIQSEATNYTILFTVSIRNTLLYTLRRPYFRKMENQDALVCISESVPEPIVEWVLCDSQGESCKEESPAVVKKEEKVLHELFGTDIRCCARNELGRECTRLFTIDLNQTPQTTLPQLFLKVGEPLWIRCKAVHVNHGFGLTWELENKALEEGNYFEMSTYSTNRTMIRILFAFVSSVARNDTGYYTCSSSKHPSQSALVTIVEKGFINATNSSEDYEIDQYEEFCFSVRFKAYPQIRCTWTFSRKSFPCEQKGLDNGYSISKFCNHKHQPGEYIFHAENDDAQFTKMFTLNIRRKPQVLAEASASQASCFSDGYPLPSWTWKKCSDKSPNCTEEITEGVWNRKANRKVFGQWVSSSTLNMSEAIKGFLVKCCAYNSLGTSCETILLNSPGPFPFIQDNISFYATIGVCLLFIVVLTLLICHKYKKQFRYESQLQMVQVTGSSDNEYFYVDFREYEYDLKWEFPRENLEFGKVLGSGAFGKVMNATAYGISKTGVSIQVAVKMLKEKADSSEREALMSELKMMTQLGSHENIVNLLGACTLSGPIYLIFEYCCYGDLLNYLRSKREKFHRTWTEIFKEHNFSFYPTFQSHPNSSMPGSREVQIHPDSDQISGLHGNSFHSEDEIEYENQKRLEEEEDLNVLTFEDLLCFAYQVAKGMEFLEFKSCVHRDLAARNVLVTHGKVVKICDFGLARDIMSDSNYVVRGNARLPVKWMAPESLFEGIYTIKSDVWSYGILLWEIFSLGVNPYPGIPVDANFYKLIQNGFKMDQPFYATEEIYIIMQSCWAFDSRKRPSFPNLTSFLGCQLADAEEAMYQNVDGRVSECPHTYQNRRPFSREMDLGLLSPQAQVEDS
Outline: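 Receptor phosphotyrosine measured by sandwich ELISA (anti-FLT3 capture, HRP anti-pTyr, luminescence) in FLT3-transfected murine Baf3 cells given 1 h compound pretreatment and 10 min 100 ng/mL FLT ligand after overnight low-serum starvation; triplicates, IC50 from nonlinear regression.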

SMILES | pIC50
CC(C)Oc1ccc(NC(=O)N2CCC(c3ccnc4ccccc34)CC2)cc1 [Example 6, 4-Quinolin-4-yl-piperidine-1-carboxylic acid (4-isopropoxy-phenyl)-amide] | 7.40
COc1cc2ncnc(C3CCN(C(=O)Nc4ccc(C(C)O)cc4)CC3)c2cc1OC (centres unmarked) [Example 55, 4-(6,7-Dimethoxy-quinazolin-4-yl)-piperidine-1-carboxylic acid [4-(1-hydroxy-ethyl)-phenyl]-amide] | 6.00
CN1CCCN(CCCOc2ccc3c(C4CCN(C(=O)Nc5ccc(N6CCOCC6)cc5)CC4)ncnc3c2)CC1 [Example 125, 4-{7-[3-(4-Methyl-[1,4]diazepan-1-yl)-propoxy]-quinazolin-4-yl}-piperidine-1-carboxylic acid (4-morpholin-4-yl-phenyl)-amide] | 7.18
COc1cc2ncnc(C3CCN(C(=O)Nc4ccc(C(C)C)cc4)CC3)c2cc1OC [Example 4, 4-(6,7-Dimethoxy-quinazolin-4-yl)-piperidine-1-carboxylic acid (4-isopropyl-phenyl)-amide] | 7.25
O=C(Nc1ccc(N2CCOCC2)cc1)N1CCC(c2ncnc3cc(OCCC4CCCCN4)ccc23)CC1 (centres unmarked) [Example 98, 4-[7-(2-Piperidin-2-yl-ethoxy)-quinazolin-4-yl]-piperidine-1-carboxylic acid (4-morpholin-4-yl-phenyl)-amide] | 7.07
CN1CCN(CCCOc2ccc3c(C4CCN(C(=O)Nc5cnc(N6CCCC6)nc5)CC4)ncnc3c2)CC1 [Example 105, 4-{7-[3-(4-Methyl-piperazin-1-yl)-propoxy]-quinazolin-4-yl}-piperidine-1-carboxylic acid (2-pyrrolidin-1-yl-pyrimidin-5-yl)-amide] | 7.01

These reach a higher pIC50. Values come first.

pIC50 | SMILES
8.00 | COc1cc2ncnc(C3CCN(C(=O)Nc4ccc(OC(C)C)nc4)CC3)c2cc1OC [Example 56, 4-(6,7-Dimethoxy-quinazolin-4-yl)-piperidine-1-carboxylic acid (6-isopropoxy-pyridin-3-yl)-amide]
7.60 | O=C(Nc1ccc(N2CCCC2)nc1)N1CCC(c2ncnc3cc(OCCN4CCOCC4)ccc23)CC1 [Example 95, 4-[7-(2-Morpholin-4-yl-ethoxy)-quinazolin-4-yl]-piperidine-1-carboxylic acid (6-pyrrolidin-1-yl-pyridin-3-yl)-amide]
7.96 | CN1CCC(COc2ccc3c(C4CCN(C(=O)Nc5ccc(N6CCOCC6)cc5)CC4)ncnc3c2)CC1 [Example 94, 4-[7-(1-Methyl-piperidin-4-ylmethoxy)-quinazolin-4-yl]-piperidine-1-carboxylic acid (4-morpholin-4-yl-phenyl)-amide]
7.89 | CS(=O)(=O)NCCCOc1ccc2c(C3CCN(C(=O)Nc4ccc(N5CCOCC5)cc4)CC3)ncnc2c1 [Example 66, 4-[7-(3-Methanesulfonylamino-propoxy)-quinazolin-4-yl]-piperidine-1-carboxylic acid (4-morpholin-4-yl-phenyl)-amide]
7.64 | CN(C)C(=O)N1CCN(CCCOc2ccc3c(C4CCN(C(=O)Nc5ccc(N6CCOCC6)cc5)CC4)ncnc3c2)CC1 [Example 120, 4-(3-{4-[1-(4-Morpholin-4-yl-phenylcarbamoyl)-piperidin-4-yl]-quinazolin-7-yloxy}-propyl)-piperazine-1-carboxylic acid dimethylamide]
8.15 | COc1cc2ncnc(C3CCN(CC(=O)Nc4ccc(C(C)C)cc4)CC3)c2cc1OC [Example 9, 2-[4-(6,7-Dimethoxy-quinazolin-4-yl)-piperidin-1-yl]-N-(4-isopropyl-phenyl)-acetamide]
7.51 | COc1cc2ncnc(C3CCN(CC(=O)Nc4ccc(OC(C)C)cc4)CC3)c2cc1OC [Example 10, 2-[4-(6,7-Dimethoxy-quinazolin-4-yl)-piperidin-1-yl]-N-(4-isopropoxy-phenyl)-acetamide]
8.15 | CCC(C)c1ccc(NC(=O)N2CCC(c3ncnc4cc(OC)c(OC)cc34)CC2)cc1 (centres unmarked) [Example 52, 4-(6,7-Dimethoxy-quinazolin-4-yl)-piperidine-1-carboxylic acid (4-sec-butyl-phenyl)-amide]

Reference: patent US20070004660A1, “Synergistic Modulation of Flt3 Kinase Using Alkylquinolines and Alkylquinazolines” (priority 2005, published 2007)
